Reference: EP0866709B1, “1,2,4-BENZOTRIAZINE OXIDES FORMULATIONS” (priority 1995, dated 1997)
Converted amounts (≈) assume the structure as drawn. Like-named read-outs stand apart in the source and are kept apart here.

Key:
hypoxic cells [1] = conditions: cited from earlier work
hypoxic cells [2] = conditions: Human; in vitro; drug concentration required under aerobic vs. hypoxic conditions for equivalent cell killing; cited from earlier work
[3] = assay type: physicochemical
From the text: […]. The planar nature of the molecule would facilitate an ordered stacking with the crystal with intermolecular attractions (charge transfer interactions) between each plane via the nitrogen and oxygen of the N-oxide functions. A hydrated form of tirapazamine can exist where water molecules are hydrogen bonded to the oxygen components.

HT 1080 = experiment: In vitro cytotoxicity under aerobic or hypoxic conditions; assay type: cell-based; conditions: Homo sapiens; HT 1080 (tumor); 1-hour incubation under hypoxic conditions
[4] = Stress stability on storage at 50°C and 70°C after a single autoclave cycle; assay type: physicochemical
Protocol: Formulations were also stressed by storing at elevated temperatures of 50°C and 70°C after a single autoclave cycle of 21 minutes at 121°C. […] This instability was not apparent from multiple autoclave stressing.
The clinical formulation used in chemical studies discussed later was as follows: […]

mouse SCCVII tumors = experiment: Tirapazamine with fractionated radiation in vivo; conditions: multiple 0.08 mmol/kg (43 mg/m^2) doses given prior to each radiation fraction (2.5 Gy x 8)
FSaIIC fibrosarcoma [5] = experiment: Tirapazamine alone in vivo; parameters: species or system mice
From the text: (§1) When given alone in vivo in mice, tirapazamine-in single doses-would be expected to produce a relatively small cell kill corresponding to the percentage of tumor cells which are hypoxic. A number of experiments have shown this to be the case, with cell kills typically less than one log (surviving fraction ≥ 1•10^-1). For example, the maximum cell kill observed following a single does was in the SCCVII tumor (surviving fraction = 5•10^-1), and only a small tumor growth delay of 3 days was produced in the FSaIIC fibrosarcoma.

AG 1522 = experiment: In vitro cytotoxicity under aerobic or hypoxic conditions; assay type: cell-based; conditions: Homo sapiens; AG 1522 (normal); 1-hour incubation under hypoxic conditions
rat = experiment: Single and 2-week and 2-month multiple-dose studies; assay type: in vivo; conditions: each regimen (single, 2-week, 2-month multiple-dose)
Protocol: (§2) Single and 2-week and 2-month multiple-dose studies were performed in the rat and the dog.

dog = experiment: as above; assay type: in vivo; conditions: each regimen (single, 2-week, 2-month multiple-dose)
Protocol: as §2

RIF-1 = experiment: In vitro cytotoxicity under aerobic or hypoxic conditions; assay type: cell-based; conditions: Mus musculus; RIF-1 (tumor); 1-hour incubation under hypoxic conditions
[6] = phosphate buffer at pH 7.4; cited from earlier work
A549 = experiment: In vitro cytotoxicity under aerobic or hypoxic conditions; assay type: cell-based; conditions: Homo sapiens; A549 (tumor); 1-hour incubation under hypoxic conditions
HCT-8 = experiment: as above; assay type: cell-based; conditions: Homo sapiens; HCT-8 (tumor); 1-hour incubation under hypoxic conditions
CHO-HA-1 = experiment: as above; assay type: cell-based, Hamster; conditions: CHO-HA-1 (normal); 1-hour incubation under hypoxic conditions
[7] = Solubility of tirapazamine in water and various vehicles; assay type: physicochemical
[8] = test system: FSaIIC Murine Fibrosarcoma; conditions: administered just before single-dose treatment with cyclophosphamide, carmustine or melphalan; cited from earlier work
in vivo = conditions: mouse
FSaIIC fibrosarcoma [9] = experiment: Tirapazamine with chemotherapy in vivo; parameters: species or system mice; conditions: tirapazamine 50 mg/kg IP added to cyclophosphamide (150 mg/kg IP), melphalan (10 mg/kg IP), or cisplatin (10 mg/kg IP)
[10] = Degradation on refluxing in 0.1 N sodium hydroxide; assay type: physicochemical
SCCVII = experiment: In vitro cytotoxicity under aerobic or hypoxic conditions; assay type: cell-based; conditions: Mus musculus; SCCVII (tumor); 1-hour incubation under hypoxic conditions
[11] = Stress stability study, multiple autoclave cycles of 21 minutes at 121°C; assay type: physicochemical
Protocol: Stress studies were conducted using multiple autoclave cycles of 21 minutes at 121°C. […] A shift in the normal saline formulation pH occurred after eight autoclave cycles from 4.5 to 4.9, therefore formulations required some degree of buffering.

mouse tumor models = experiment: Tirapazamine with radiation in vivo
mouse tumors = experiment: Tirapazamine alone in vivo, tumor cell kill; parameters: species or system mice; conditions: given without radiation; typical
From the text: as §1, with “. When” for “When”
[…]. However, the lowest surviving fraction seen in four different mouse tumors was 5•10^-1, and down to 5•10^-2 in a fifth mouse tumor (RIF-1 tumor).

[12] = Rodent, in vitro, drug concentration required under aerobic vs. hypoxic conditions for equivalent cell killing

For COCC(O)Cn1ccnc1[N+](=O)[O-] (centres unmarked) [Misonidazole], the “Hypoxic Cytotoxicity Ratio” value (hypoxic cells [1]; [12]) is given as 10-15 and the “Hypoxic Cytotoxicity Ratio” value (hypoxic cells [2]) is given as 15.

In the case of CN(C)CCCNc1c2ccccc2nc2cccc([N+](=O)[O-])c12 [Nitracrine], the “Hypoxic Cytotoxicity Ratio” value (hypoxic cells [1]) is listed as 7.

For CO[C@@]12[C@H](COC(N)=O)C3=C(C(=O)C(C)=C(N)C3=O)N1C[C@H]1[C@@H]2N1C (some centres unmarked) [Porfiromycin], the “Hypoxic Cytotoxicity Ratio” value (hypoxic cells [1]; [12]) is listed as 5-10 and the “Hypoxic Cytotoxicity Ratio” value (hypoxic cells [2]) is listed as ~10.

For Nc1n[n+]([O-])c2ccccc2[n+]1[O-] [Tirapazamine, 1,2,4-benzotriazine-3-amine 1,4-dioxide], the “partition coefficient (octanol/water)” value [3] was 0.15, the IC50 (HT 1080) was 22 µM and the Stability ([4]; 0.7 mg/ml in 0.005M citrate buffer pH 4.0, 2 months at 50°C) was “stable”. For the same molecule, the Stability ([4]; 0.7 mg/ml in 0.05M citrate buffer pH 4.0, 2 months at 50°C) was “stable”, the Stability ([4]; 0.7 mg/ml in 0.05M citrate buffer pH 4.0, at 70°C) was “evidence of instability” and the Stability ([4]; 0.05M citrate pH 4, compared with the other formulations stressed) was “most stable formulation”. For the same molecule, the Stability ([4]; lactate buffer, storage at 70°C after a single autoclave cycle) was “unstable”, the cures (mouse SCCVII tumors) was “several cures” and the “direct tumor cell killing” value (FSaIIC fibrosarcoma [5]; 25 to 75 mg/kg IP, mice bearing the FSaIIC fibrosarcoma) was “some direct tumor cell killing was observed”. The tumor growth delay (FSaIIC fibrosarcoma [5]; alone, single dose, FSaIIC fibrosarcoma) was 3 days, the IC50 (AG 1522) was 13 µM and the “Clinical signs and symptoms” value (rat) was “salivation, decreases in white blood cell measurements (including lymphocyte count in the dog), and decreases in red blood cell measurements”. The “Clinical signs and symptoms” value (dog) was “salivation, decreases in white blood cell measurements (including lymphocyte count in the dog), and decreases in red blood cell measurements”, the IC50 (RIF-1) was 3 µM and the Stability [6] was “stable”. The IC50 (A549) was 15 µM, the IC50 (HCT-8) was 10 µM and the IC50 (CHO-HA-1) was 5 µM. It also gave a solubility ([7]; 1% benzyl alcohol : 10% ethanol : 89% water, v/v, 15 °C, aqueous with cosolvent or surfactant or cyclodextrin, 1% Benzyl alcohol: 10% ethanol:89% water, v/v, 15°C) of 1.23 mg/mL (≈ 6.9 mM), a solubility ([7]; Albumin 4.5% w/v, 20 °C, plasma or biological fluid) of 1.33 mg/mL (≈ 7.47 mM) and a solubility ([7]; Albumin 20% w/v, 20 °C, plasma or biological fluid) of 1.71 mg/mL (≈ 9.6 mM). For the same molecule, the solubility ([7]; Dimethylformamide 25% v/v in water, 15 °C, aqueous with cosolvent or surfactant or cyclodextrin) was 1.83 mg/mL (≈ 10.3 mM), the solubility ([7]; Ethanol 10% v/v in water, 15 °C, aqueous with cosolvent or surfactant or cyclodextrin) was 0.93 mg/mL (≈ 5.22 mM) and the solubility ([7]; Ethanol 50% v/v in water, 15 °C, aqueous with cosolvent or surfactant or cyclodextrin) was 2.32 mg/mL (≈ 13 mM). It also gave a solubility ([7]; Ethanol 65% v/v in water, 15 °C, aqueous with cosolvent or surfactant or cyclodextrin) of 2.84 mg/mL (≈ 15.9 mM), a solubility ([7]; Ethanol 85% v/v in water, 15 °C, aqueous with cosolvent or surfactant or cyclodextrin) of 1.71 mg/mL (≈ 9.6 mM) and a solubility ([7]; Ethanol, 15 °C, organic solvent or mixture) of 0.47 mg/mL (≈ 2.64 mM). The solubility ([7]; Glycerol 50% v/v in water, 15 °C, aqueous with cosolvent or surfactant or cyclodextrin) was 2.93 mg/mL (≈ 16.4 mM), the solubility ([7]; Glycerol, 15 °C, organic solvent or mixture) was 4.59 mg/mL (≈ 25.8 mM) and the solubility ([7]; Normal Saline, 15 °C, saline or isotonic) was 0.85 mg/mL (≈ 4.77 mM). It also gave a solubility ([7]; PEG 400 50% v/v in water, 15 °C, aqueous with cosolvent or surfactant or cyclodextrin) of 1.6 mg/mL (≈ 8.98 mM), a solubility ([7]; PEG 400, 15 °C, organic solvent or mixture) of 5.12 mg/mL (≈ 28.7 mM) and a solubility ([7]; Pluronic F68 20% w/v, 15 °C, aqueous with cosolvent or surfactant or cyclodextrin) of 1.08 mg/mL (≈ 6.06 mM). It also gave a solubility ([7]; Povidone (Kollidon 12PF) 10% w/v, 15 °C, aqueous with cosolvent or surfactant or cyclodextrin) of 0.95 mg/mL (≈ 5.33 mM), a solubility ([7]; Propylene glycol 50% v/v in water, 15 °C, aqueous with cosolvent or surfactant or cyclodextrin) of 2.58 mg/mL (≈ 14.5 mM) and a solubility ([7]; Propylene glycol, 15 °C, organic solvent or mixture) of 3.27 mg/mL (≈ 18.4 mM). For the same molecule, the solubility ([7]; Tween 80 0.2% w/v, 15 °C, aqueous with cosolvent or surfactant or cyclodextrin) was 0.9 mg/mL (≈ 5.05 mM), the solubility ([7]; Tween 80 20% w/v, 15 °C, aqueous with cosolvent or surfactant or cyclodextrin) was 1.02 mg/mL (≈ 5.73 mM) and the solubility ([7]; Water for Injections, 15 °C, water) was 0.85 mg/mL (≈ 4.77 mM). The solubility ([7]; Water for Injections, 20 °C, water) was 1.43 mg/mL (≈ 8.03 mM), the solubility ([7]; citrate buffer 0.05 M pH 4 (isotonic), 15 °C, pH 4, aqueous buffer) was 0.81 mg/mL (≈ 4.55 mM) and the solubility ([7]; lactate buffer 0.1 M pH 4 (isotonic), 15 °C, pH 4, aqueous buffer, Lactate buffer O.1M pH 4 (isotonic)) was 0.9 mg/mL (≈ 5.05 mM). The solubility ([7]; water, in water (text, temperature not given)) was ~0.81 mg/mL (≈ 4.55 mM), the “dose enhancement of alkylating agents” value [8] was “marked dose enhancement leading to synergistic cytotoxic effects on tumor cells” and the LD50 (in vivo) was 101 mg/kg. For the same molecule, the “increases in tumor growth delay” value (FSaIIC fibrosarcoma [9]) was 1.6- to 5.3 fold, the Degradation [10] was “complete degradation occurs after refluxing for less than four hours” and the IC50 (SCCVII) was 4 µM. The Stability ([11]; acidic solutions of normal saline or solutions buffered to pH 4 using 0.05M citrate or 0.1 M lactate buffer) was “more stable”, the Stability ([11]; citrate buffer at pH 6) was “unstable” and the Stability ([11]; phosphate buffer at pH 5.9) was “unstable”. For the same molecule, the “antitumor effect of tirapazamine plus radiation versus additive effect” value (mouse tumor models; one study) was “exceeds the additive effect of these two treatments”, the “enhancement of the antitumor activity of radiation, compared with etanidazole” value (mouse tumor models; one study) was “to a greater extent than did the hypoxic cell sensitizer etanidazole” and the “effectiveness with fractionated radiation” value (mouse tumor models; single 0.30 mmol/kg (160mg/m^2) dose versus multiple 0.08 mmol/kg (43 mg/m^2) doses, fractionated radiation (2.5 Gy x 8)) was “equally effective”. The “effectiveness with single-dose radiation” value (mouse tumor models; single 0.30 mmol/kg (160mg/m^2) dose with a single large (20 Gy) dose of radiation) was “effective”, the “antitumor activity of radiation (cell killing or tumor growth delay)” value (mouse tumor models; tumors FSaIIC, SCCVII, RIF-1, EMT6, and KHT, single- or multiple-dose schedule, single-dose or fractionated radiation) was “augments the antitumor activity of radiation” and the cell kill (mouse tumors) was “less than 1 log”.
